Assay results reported in US7638509B2, “Diene compounds and formulations” (priority 2003, dated 2009).
Numbering of substitutions follows the chain as printed.

Key:
mutant AR = target: T1, mutant AR (Homo sapiens, UniProt P10275, T878A); assay: AR transcription, MMTV-Luc reporter in LNCaP cells; assay type: cell-based
T1 construct: LNCaP without transfection; endogenous in cells; host or cells: LNCaP
T1 sequence (P10275 1-920 T878A): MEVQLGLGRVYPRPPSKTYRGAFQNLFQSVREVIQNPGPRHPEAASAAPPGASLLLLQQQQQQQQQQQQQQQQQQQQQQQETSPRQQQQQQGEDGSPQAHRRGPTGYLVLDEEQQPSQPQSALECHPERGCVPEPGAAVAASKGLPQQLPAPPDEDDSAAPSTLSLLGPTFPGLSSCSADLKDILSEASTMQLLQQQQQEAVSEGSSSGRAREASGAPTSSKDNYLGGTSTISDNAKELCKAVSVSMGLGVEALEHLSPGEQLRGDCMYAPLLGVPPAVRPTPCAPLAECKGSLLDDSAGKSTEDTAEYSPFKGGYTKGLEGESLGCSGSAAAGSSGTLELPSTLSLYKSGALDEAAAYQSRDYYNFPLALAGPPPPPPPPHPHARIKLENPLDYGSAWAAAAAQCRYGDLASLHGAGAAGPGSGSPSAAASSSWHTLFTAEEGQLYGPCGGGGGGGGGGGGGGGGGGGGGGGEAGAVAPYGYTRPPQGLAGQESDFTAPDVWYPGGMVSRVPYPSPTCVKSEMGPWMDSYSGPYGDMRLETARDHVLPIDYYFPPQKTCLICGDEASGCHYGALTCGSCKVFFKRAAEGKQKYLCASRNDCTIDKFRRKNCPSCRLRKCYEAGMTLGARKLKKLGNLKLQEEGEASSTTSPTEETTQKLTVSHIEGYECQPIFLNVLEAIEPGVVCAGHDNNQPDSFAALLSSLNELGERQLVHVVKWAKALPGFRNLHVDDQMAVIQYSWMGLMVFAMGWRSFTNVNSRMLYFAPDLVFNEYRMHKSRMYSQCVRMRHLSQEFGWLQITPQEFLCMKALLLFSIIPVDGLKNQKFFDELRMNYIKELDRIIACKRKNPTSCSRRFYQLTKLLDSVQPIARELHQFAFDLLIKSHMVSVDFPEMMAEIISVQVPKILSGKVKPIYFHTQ
Procedure: (§1) Cell Culture, Transfection, and Reporter Gene Assay. The human prostate cancer cell lines, LNCaP, PC-3, and DU145, and non-prostate cancer cell line COS-1 were maintained in RPMI or Dulbecco's modified Eagle's medium (DMEM) (Life Technologies) supplemented with 10% fetal bovine serum (FBS). […] Briefly, cells seeded to reach a density of 50-60% confluence in 12 well tissue culture plates were transfected with 1.5 μg of DNA according to “SuperFect transfection” instructions (Qiagen). After 2-3 h incubation, cells were treated with medium supplemented with charcoal-stripped FBS containing either ethanol or ligands for 24 h. The cells were then harvested and whole cell extracts were used for Luc assay. The Luc activity was determined using a Dual-Luciferase Reporter Assay System (Promega) and luminometer.
(§2) The pSG5-AR was co-transfected in COS-1 cells. […] Values were obtained from the mean±SD of at least three determinations. DU145 cells were transfected with the pSG5-AR and MMTV-Luc in the presence or absence of pSG5-ARA70. […] Values were obtained for the mean±SD of at least three determinations.

PSA = PSA expression in LNCaP cells, Western blot; assay type: cell-based, human; conditions: 48 h, 1 nM DHT or 1 μM HF, casodex, ADEK in absence of DHT
Procedure: Western Blot. […] An antibody for -actin (Santa Cruz Biotechnology) was used as the internal control. Blots were quantitated by Collage software (Fotodyne).
The 33-kDa protein was quantitated. β-Actin expression was used as an internal control. […] The mean±SD of three separate experiments was determined. […] Total cell number was counted by hemocytometer. The mean of at least three determinations was determined.

AR [1] = target: T2, AR (Homo sapiens, UniProt P10275, T878A); assay: Competitive [3H]-R1881 ligand binding assay, LNCaP whole cell extracts; conditions: 1 nM [3H]-R1881, unlabeled ligand 1-10,000 nM, relative to DHT
T2 construct: LNCaP without transfection; endogenous in cells; host or cells: LNCaP
T2 sequence (P10275 1-920 T878A): T1 sequence (P10275 1-920 T878A)
Procedure: (§3) Ligand Binding Assay. Whole cell extracts from COS-1 with transient transfection of pSG5-AR, or LNCaP without transfection, were incubated for 2 h at 37° C. with 1 nM [^3H]-synthetic androgen methyltrienolone (R1881) in the presence and absence of increasing concentrations (1-10,000 nM) of unlabeled ligands. Then, hydroxyapatite (Bio-Rad) was added and stirred for 15 min at 4° C. After centrifugation and washing, radioactivity was determined by scintillation counting.
(§4) Clinically available antiandrogens have an affinity for the AR, allowing a competition with androgens for binding. To determine whether ADEK has this common feature of AR antagonists, the competitive androgen binding assay was performed.

AR [2] = target: T2, AR; assay: Adiol-induced AR transcription, MMTV-Luc in LNCaP cells; assay type: cell-based; conditions: 2.5 nM Adiol, compound at 1 μM
Procedure: (§5) Cell Culture, Transfection, and Reporter Gene Assay. The human prostate cancer cell lines, LNCaP, PC-3, and DU145, and non-prostate cancer cell line COS-1 were maintained in RPMI or Dulbecco's modified Eagle's medium (DMEM) (Life Technologies) supplemented with 10% fetal bovine serum (FBS). Transfections and luciferase (Luc) assays were performed as previously described (Miyamoto, H., Yeh, S., Wilding, G. & Chang, C. (1998) Proc. Natl. Acad. Sci. USA 95, 7379-7384; Miyamoto, H., Rahman, M., Takatera, H., Kang, H.-Y., Yeh, S., Chang, H.-C., Nishimura, K., Fujimoto, N. & Chang, C. (2002) J. Biol. Chem. 277, 4609-4617). Briefly, cells seeded to reach a density of 50-60% confluence in 12 well tissue culture plates were transfected with 1.5 μg of DNA according to “SuperFect transfection” instructions (Qiagen). After 2-3 h incubation, cells were treated with medium supplemented with charcoal-stripped FBS containing either ethanol or ligands for 24 h. The cells were then harvested and whole cell extracts were used for Luc assay. The Luc activity was determined using a Dual-Luciferase Reporter Assay System (Promega) and luminometer.
(§6) Effect of ADEK on AR Transcription. […] (set as 100%). Values were obtained from the mean±SD of at least three determinations.

wild-type AR [3] = target: T3, wild-type AR (Homo sapiens, UniProt P10275); assay: Adiol-induced AR transcription, MMTV-Luc in PC-3 cells with pSG5-AR; assay type: cell-based; parameters: expressed in transfected cells; host or cells: PC-3; conditions: PC-3, 2.5 nM Adiol, compound at 1 μM
T3 sequence (P10275 1-920): T1 sequence (P10275 1-920 T878A) with A878T
Procedure: as §5, §6

wild-type AR [4] = target: T3, wild-type AR; assay: AR transcription, MMTV-Luc reporter in COS-1 cells co-transfected with pSG5-AR; assay type: cell-based; parameters: expressed in transfected cells; host or cells: COS-1; conditions: COS-1, 1 nM DHT
Procedure: as §1, §2

wild-type AR [5] = target: T3, wild-type AR; assay: Competitive [3H]-R1881 ligand binding assay, extracts of COS-1 transfected with wild-type AR; parameters: expressed in transfected cells; host or cells: COS-1; conditions: 1 nM [3H]-R1881, unlabeled ligand 1-10,000 nM, relative to DHT
Procedure: as §3, §4

SMILES: CC(C)(O)C(=O)Nc1ccc([N+](=O)[O-])c(C(F)(F)F)c1 [HF, hydroxyflutamide, reference compound]
- suppression of DHT-induced mutant AR transcription (in words) (mutant AR; 10 μM): no suppression
- agonist / androgenic activity on mutant AR transcription (in words) (mutant AR; MMTV-Luc, HF at 10 μM): full agonist
- endogenous PSA expression over mock treatment (PSA): 3.5 fold
- RBA in LNCaP (AR [1]): 23.0
- block of Adiol-induced AR transcription (in words) (AR [2]): failed to significantly block
- block of Adiol-induced AR transcription (in words) (wild-type AR [3]): failed to significantly block
- suppression of DHT-induced wild-type AR transcription compared with ADEK at 1 μM (21%), in words (wild-type AR [4]): similar
- RBA in COS-1 with AR (wild-type AR [5]): 17.1
